Assay results reported in US20230321288A1, “RIBOFLAVIN PHOTOCHEMICAL TREATMENT (RPT)-BASED INACTIVATION METHOD OF PATHOGENS IN BIOLOGICAL LIQUID SAMPLE” (INSTITUTE OF BLOOD TRANSFUSION CHINESE ACADEMY OF MEDICAL …, priority 2020, published 2023).

How the values were obtained:
E. coli = assay: RPT-based inactivation of E. coli in plasma, growth detected by Reed-Muench method (Example 1); format: cell-based, Escherichia coli; settings: 50 μM riboflavin, 15 min, 1 W
Experimental: In this example, the plasma of healthy blood donors containing 50 μM of riboflavin was irradiated with LED lamp beads in a series of wavelength ranges for 15 min at an irradiation intensity of 1 W. The growth of E. coli in the blood products was then detected by a Reed-Muench method.

Staphylococcus aureus = assay: RPT-based inactivation of Staphylococcus aureus in apheresis platelets, growth detected by Reed-Muench method (Example 2); format: cell-based; settings: 50 μM riboflavin, 30 min
Experimental: (§1) In this example, the apheresis platelets containing 50 μM of riboflavin were separately irradiated with LED lamp beads with a wavelength of 395 nm±5 nm and fluorescent tubes with a wavelength of 309 nm to 313 nm for 30 min at irradiation intensities of 1 W (395 nm f 5 nm) and 9 W (309 nm to 313 nm), respectively. The growth of Staphylococcus aureus in the blood products was then detected by a Reed-Muench method.

apheresis platelets = assay: Quality of platelet preservation after RPT (Example 2, Table 1); format: cell-based; settings: for K^+ / MPV / Na^+ / PH: platelets, 50 μM riboflavin, 30 min
Experimental: as §1
The properties and component contents of the platelet samples in the three groups of experiments were compared, and the results were as follows: […]

With `Cc1cc2nc3c(=O)[nH]c(=O)nc-3n(C[C@H](O)[C@H](O)[C@H](O)CO)c2cc1C` [riboflavin] the “pathogen inactivation effect on E. coli” value (E. coli; LED 365 nm ± 5 nm) was “desirable pathogen inactivation effect”, the “pathogen inactivation effect on E. coli” value (E. coli; LED 395 nm±5 nm) was “desirable pathogen inactivation effect” and the “inactivation of S. aureus” value (Staphylococcus aureus; 309 nm to 313 nm fluorescent tubes, 9 W) was “could inactivate the S. aureus”. For the same molecule, the “inactivation effect on S. aureus compared with 309 nm to 313 nm fluorescent tubes” value (Staphylococcus aureus; 395 nm±5 nm LED) was “better”, the “inactivation of S. aureus” value (Staphylococcus aureus; 395 nm±5 nm LED, 1 W) was “could inactivate the S. aureus” and the “damage to the platelet samples” value (apheresis platelets) was “significantly less damage”. The “K^+” value (apheresis platelets; 309 nm to 313 nm, 9 W) was 3 mmol/L, the MPV (apheresis platelets; 309 nm to 313 nm, 9 W) was 12.1 and the “Na^+” value (apheresis platelets; 309 nm to 313 nm, 9 W) was 151 mmol/L. The PH (apheresis platelets; 309 nm to 313 nm, 9 W) was 7.26, the “K^+” value (apheresis platelets; 395 nm ± 5 nm, 1 W) was 2.7 ± 0^ mmol/L and the MPV (apheresis platelets; 395 nm ± 5 nm, 1 W) was 9.5 ± 0^. The “Na^+” value (apheresis platelets; 395 nm ± 5 nm, 1 W) was 153.6 ± 0.49 mmol/L and the PH (apheresis platelets; 395 nm ± 5 nm, 1 W) was 7.45 ± 0.01.
